Laboratory results from article PMC10765884, “MC180295 is a highly potent and selective CDK9 inhibitor with preclinical in vitro and in vivo efficacy in cancer” (Clinical Epigenetics, 2024).
“Also recorded” adds a separate entry of the source. Read-outs that look alike come from different tables or passages of the source.

Tests used:
Pharmacokinetics in rats = assay type: in vivo; details: rat, plasma, iv, 1 mg/kg; for AUC(0-t): read-out: AUC24hr; for Vd: read-out: Vss
MV4-11-luc cells = assay: MV4-11-luc AML model in NSG mice; details: MV4-11-luc in NSG mice, 20 mg/kg i.p. q.o.d.; for survival: 20 mg/kg
[1] = Liver microsome stability assay; assay type: in vitro ADME, mouse; details: pH 7.4; for remaining at 1 h, 1 µM: male, CD-1, pooled liver microsomes, Mouse liver microsomes, without NADPH, 60 min, read-out: Stability minus NADPH % Remaining @ 60 min; for half-life at 1 µM: pooled liver microsomes, Mouse (CD-1, male) liver microsomes
Description: (§1) Assays were conducted in 96-deep well polypropylene plates. In duplicate, test compounds (1 µM) were incubated in 0.5 mL of 100 mM potassium phosphate buffer (pH 7.4), with 0.5 mg/ml pooled liver microsomes (Life Technologies: CD-1 male mice # MSMCPL; SD male rat # RTMCPL; mixed gender human # HMMCPL. BD Genetest male beagle dog; # 452,601; male marmoset # 452,340), 2 mM tetra sodium NADPH, and 3 mM MgCl2, for 60 min in a Labnet® Vortemp incubator at 37 °C, with gentle shaking. At five time points, 75 µL of reaction mixtures were transferred on ice to a 96-shallow well stop plate containing 225 µL acetonitrile with 0.1 µM propafenone. […] Standard curves for test compounds were generated using 5 concentrations (in duplicate) that were processed as above but with no incubation time. Stop plates were centrifuged at 2000xg for 10 min in a Sorvall ST 16 centrifuge, and 170 µL of the supernatants transferred to a Waters® Aquity UPLC (Ultra Performance Liquid Chromatography) 700 µL 96-well sample plate with cap mat. A Waters® Aquity UPLC BEH C18 1.7 µM, 2.1 × 50 mm column, at 40 °C, was used to fractionate 5 µL samples, using a 3 min linear 5 to 95% acetonitrile gradient in 0.1% formic acid with a 0.75 mL/min flow rate. In tandem with UPLC, compound concentrations were analyzed using a Waters® TQ MS mass spectrometer in electrospray-positive mode (source temperature 150 °C; desolvation temperature 450 °C; desolvation flow rate of 900 L/hr). Cone voltages, collision energies, and quantitation were optimized and determined using Waters® QuanOptimize software, with propafenone as an internal standard. MC180379:CV 34; CE 34; mrm 359.15 > 114.91; MC180390 CV 34; CE 28; mrm 359.15 > 114.92. GraphPad® Prism v 5.04 was used for nonlinear fitting of time course data to generate t1/2 and CLint (intrinsic clearance) values.

[2] = Rat hepatocyte stability assay; assay type: in vitro ADME; set-up: dose or concentration left out as unconfirmed; details: cryopreserved primary hepatocytes; Rat (Sprague-Dawley) hepatocytes, male
Description: CLint (μL/min/10^6 cells) estimates were determined using a modified method of […] et al.. Cryopreserved rat (Sprague-Dawley) primary hepatocytes (4 male donors) (Life Tech product RTCS10) were rapidly thawed, diluted with Hank's balanced salt solution at 37 °C and centrifuged for 5 min at 100 × g. Resuspended cells were stained with 0.016% trypan blue and counted. Cell viability was > 80%. 0.25 mL of a 1 × 10^6 viable cells/ml cell suspension was added to 16-mm diameter wells of an uncoated polystyrene plate. The prewarmed plate was placed in a 37 °C incubator with 5% CO2 atmosphere, with 100 oscillations/min shaking. After 5 min, 0.25 mL of 2 μM test compound, in prewarmed HBSS, was added per well and mixed to start the reactions, with duplicate reactions per compound. Verapamil was used as a positive control, and cell-free reactions served as negative controls. At each time point (0, 5, 15, 30, 60, 90, and 120 min), 50 μL aliquots were transferred to a 96-well stop plate containing 200 μL/well acetonitrile: water (85:15), with 0.1% formic acid and 0.1 μM propafenone. The plate was centrifuged for 10 min at 2300 × g. 150 μL of the supernatant was transferred to a mass spectrometry sample plate. Samples were analyzed by UPLC/MS, as described in the microsome stability protocol. Results are expressed as t1/2 (min) and in vitro CLint (μL/min/10^6 cells).

[3] = Liver microsome stability assay; assay type: in vitro ADME, dog; details: pooled liver microsomes, pH 7.4; for remaining at 1 h, 1 µM: male, beagle, Dog liver microsomes, without NADPH, 60 min, read-out: Stability minus NADPH % Remaining @ 60 min; for half-life at 1 µM: Dog (beagle, male) liver microsomes
Description: as §1, with “BD Genetest male beagle dog; # 452,601; male marmoset # 452,340), 2 mM tetra sodium NADPH, and 3 mM MgCl2, for 60 min in a Labnet® Vortemp incubator at 37 °C, with gentle shaking.” left out

In the case of Nc1nc(N[C@H]2C[C@@H]3CC[C@H]2C3)sc1C(=O)c1ccccc1[N+](=O)[O-] (relative stereo) [MC180295], the half-life (Pharmacokinetics in rats; given IV to rats, read-out: half-life (converted)) is reported as ~840 min, the Cmax (Pharmacokinetics in rats; rats, IV 1 mg/kg, Mean) is reported as 635 ng/mL and the clearance (Pharmacokinetics in rats; rats, IV 1 mg/kg, Mean) is reported as 5.2 mL/min. The AUC(0-t) (Pharmacokinetics in rats; rats, IV 1 mg/kg, Mean) was 679 ng·h/mL, the half-life (Pharmacokinetics in rats; rats, IV 1 mg/kg, Mean, read-out: T1/2 (converted)) was 838 min and the Vd (Pharmacokinetics in rats; rats, IV 1 mg/kg, Mean) was 4.46 L. For the same molecule, the Cmax (Pharmacokinetics in rats; rats, IV 1 mg/kg, Rat -1) was 385 ng/mL, the clearance (Pharmacokinetics in rats; rats, IV 1 mg/kg, Rat -1) was 6.4 mL/min and the AUC(0-t) (Pharmacokinetics in rats; rats, IV 1 mg/kg, Rat -1) was 470 ng·h/mL. The half-life (Pharmacokinetics in rats; rats, IV 1 mg/kg, Rat -1, read-out: T1/2 (converted)) was 1070 min, the Vd (Pharmacokinetics in rats; rats, IV 1 mg/kg, Rat -1) was 6.87 L and the Cmax (Pharmacokinetics in rats; rats, IV 1 mg/kg, Rat -2) was 568 ng/mL. For the same molecule, the clearance (Pharmacokinetics in rats; rats, IV 1 mg/kg, Rat -2) was 5.1 mL/min, the AUC(0-t) (Pharmacokinetics in rats; rats, IV 1 mg/kg, Rat -2) was 687 ng·h/mL and the half-life (Pharmacokinetics in rats; rats, IV 1 mg/kg, Rat -2, read-out: T1/2 (converted)) was 599 min. For the same molecule, the Vd (Pharmacokinetics in rats; rats, IV 1 mg/kg, Rat -2) was 3.74 L, the Cmax (Pharmacokinetics in rats; rats, IV 1 mg/kg, Rat -3) was 951 ng/mL and the clearance (Pharmacokinetics in rats; rats, IV 1 mg/kg, Rat -3) was 4.1 mL/min. For the same molecule, the AUC(0-t) (Pharmacokinetics in rats; rats, IV 1 mg/kg, Rat -3) was 879 ng·h/mL, the half-life (Pharmacokinetics in rats; rats, IV 1 mg/kg, Rat -3, read-out: T1/2 (converted)) was 840 min and the Vd (Pharmacokinetics in rats; rats, IV 1 mg/kg, Rat -3) was 2.76 L. The survival (MV4-11-luc cells) was “significantly extended survival”.
With Nc1nc(N[C@@H]2C[C@H]3CC[C@@H]2C3)sc1C(=O)c1ccccc1[N+](=O)[O-] [MC180379] the remaining at 1 h, 1 µM [1] was 86%, the half-life at 1 µM [1] was 3.2 min and the half-life [2] was 4.1 min. For the same molecule, the remaining at 1 h, 1 µM [3] was 88% and the half-life at 1 µM [3] was 36.2 min.
For Nc1nc(N[C@H]2C[C@@H]3CC[C@H]2C3)sc1C(=O)c1ccccc1[N+](=O)[O-] [MC180380], the remaining at 1 h, 1 µM [1] was 88%, the half-life at 1 µM [1] was 7.1 min and the half-life [2] was 11.7 min. The remaining at 1 h, 1 µM [3] was 88%, the half-life at 1 µM [3] was 52.5 min and the “tumor burden, as measured by luciferase intensities” value (MV4-11-luc cells) was “lower”. The survival (MV4-11-luc cells) was “significantly extended survival; also recorded: better survival”.
